In brackets after ≈: the same amount, converted by molar mass. Like-named read-outs stand apart in the source and are kept apart here.
Columns and labels:
[1] = tested on: Escherichia coli EC14; experiment: MIC, standard agar-dilution assay; format: cell-based
Method: (§1) Certain of the derivatives are active against some gram-negative bacteria, such as Pasteurella species. The MIC's in Table II were determined by standard agar-dilution assays. The MIC's in Table III were obtained using a conventional broth-dilution microtiter test.

[2] = tested on: Escherichia coli TEM; experiment: MIC, standard agar-dilution assay; format: cell-based
Summary of the method: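 Minimum inhibitory concentrations against Escherichia coli were measured with a standard agar-dilution method. The result for each derivative is the lowest concentration that inhibits bacterial growth, given in ug/mL.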

[3] = tested on: Klebsiella pneumoniae KAE; experiment: MIC, standard agar-dilution assay; format: cell-based; conditions: agar-dilution; Klebsiella pneumoniae KAE; read-out: MIC
Summary of the method: (§2)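 Agar plates containing graded compound levels gave the Klebsiella value. Graded broth dilutions in microtiter plates gave the Pasteurella and Mycoplasma values.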

[4] = tested on: Klebsiella pneumoniae X26; experiment: MIC, standard agar-dilution assay; format: cell-based
Summary of the method: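 Broth microdilution MICs cover P. hemolytica, P. multocida and M. gallisepticum. The agar-dilution MIC covers K. pneumoniae only.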

[5] = tested on: Staphylococcus aureus V41; experiment: MIC, standard agar-dilution assay; format: cell-based
Method: as §1

[6] = tested on: Staphylococcus aureus X1.1; experiment: MIC, standard agar-dilution assay; format: cell-based; conditions: Staphylococcus aureus, X1.1
Summary of the method: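 Minimum inhibitory concentration against Staphylococcus aureus strain X1.1 was measured with a standard agar-dilution method. The result is reported as the MIC in ug/mL, i.e. the lowest compound concentration in agar that prevents visible growth of this organism.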

[7] = tested on: Streptococcus Group D X66; experiment: MIC, standard agar-dilution assay; format: cell-based
Method: as §1

[8] = tested on: Streptococcus pneumoniae Park I; experiment: MIC, standard agar-dilution assay; format: cell-based; conditions: Streptococcus pneumoniae
Method: as §1

[9] = tested on: Streptococcus pyogenes 9960; experiment: MIC, standard agar-dilution assay; format: cell-based; conditions: agar-dilution, Streptococcus 9960, read-out: MIC
Method: as §1

[10] = tested on: Streptococcus pyogenes C203; experiment: MIC, standard agar-dilution assay; format: cell-based
Method: as §1

[11] = tested on: Haemophilus influenzae 76; experiment: MIC, standard agar-dilution assay; format: cell-based
Method: (§3) The MIC's in Table II were determined by standard agar-dilution assays. The MIC's in Table III were obtained using a conventional broth-dilution microtiter test.

[12] = tested on: Haemophilus influenzae C.L.; experiment: MIC, standard agar-dilution assay; format: cell-based; conditions: Haemophilus influenzae
Method: as §3

[13] = tested on: Staphylococcus aureus X400; experiment: MIC, standard agar-dilution assay; format: cell-based; conditions: Staphylococcus aureus, X400
Method: as §3

[14] = tested on: Staphylococcus epidermidis EPI2; experiment: MIC, standard agar-dilution assay; format: cell-based
Method: as §3

[15] = tested on: Staphylococcus aureus S13E; experiment: microbe, parasite or virus in culture; format: cell-based
Method: as §3

[16] = tested on: Staphylococcus epidermidis EPI1; experiment: microbe, parasite or virus in culture; format: cell-based; conditions: Staphylococcus epidermidis, EPI1
Method: as §3

[17] = tested on: Mycoplasma gallisepticum 34159; experiment: MIC, conventional broth-dilution microtiter test; format: cell-based; conditions: Mycoplasmoides gallisepticum; broth-dilution microtiter; Mycoplasma gallisepticum 34159, Resistant strain; read-out: MIC
Summary of the method: as §2

[18] = tested on: Mycoplasma gallisepticum 41313; experiment: MIC, conventional broth-dilution microtiter test; format: cell-based; conditions: Mycoplasmoides gallisepticum; broth-dilution microtiter; Mycoplasma gallisepticum 41313, Resistant strain; read-out: MIC
Summary of the method: as §2

[19] = tested on: Mycoplasma gallisepticum; experiment: MIC, conventional broth-dilution microtiter test; format: cell-based; conditions: Mycoplasmoides gallisepticum
Summary of the method: as §2

[20] = tested on: Mycoplasma hyorhinis; experiment: MIC, conventional broth-dilution microtiter test; format: cell-based; conditions: broth-dilution microtiter; Mycoplasma hyorhinis; read-out: MIC
Summary of the method: (§4)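 MICs for the two Pasteurella strains and the Mycoplasma strain were read from a broth-dilution microtiter test. The Klebsiella strain was tested on agar instead.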

[21] = tested on: Mycoplasma synoviae; experiment: MIC, conventional broth-dilution microtiter test; format: cell-based; conditions: Mycoplasmopsis synoviae; broth-dilution microtiter; Mycoplasma synoviae; read-out: MIC
Summary of the method: as §4

[22] = tested on: Pasteurella hemolytica 22C; experiment: MIC, conventional broth-dilution microtiter test; format: cell-based; conditions: broth-dilution microtiter; Pasteurella hemolytica 22C; read-out: MIC
Summary of the method: as §2

[23] = tested on: Pasteurella hemolytica 23C; experiment: MIC, conventional broth-dilution microtiter test; format: cell-based; conditions: broth-dilution microtiter; Pasteurella hemolytica 23C; read-out: MIC
Summary of the method: as §2

[24] = tested on: Pasteurella hemolytica 41D; experiment: MIC, conventional broth-dilution microtiter test; format: cell-based; conditions: broth-dilution microtiter; Pasteurella hemolytica 41D; read-out: MIC
Summary of the method: as §2

[25] = tested on: Pasteurella multocida 17E; experiment: MIC, conventional broth-dilution microtiter test; format: cell-based; conditions: broth-dilution microtiter; Pasteurella multocida 17E, Bovine isolate; read-out: MIC
Summary of the method: as §2

[26] = tested on: Pasteurella multocida 22A; experiment: MIC, conventional broth-dilution microtiter test; format: cell-based; conditions: broth-dilution microtiter; Pasteurella multocida 22A; read-out: MIC
Summary of the method: as §2

[27] = tested on: Pasteurella multocida 40G; experiment: MIC, conventional broth-dilution microtiter test; format: cell-based; conditions: broth-dilution microtiter; Pasteurella multocida 40G; read-out: MIC
Summary of the method: as §2

[28] = tested on: Pasteurella multocida 60A; experiment: MIC, conventional broth-dilution microtiter test; format: cell-based; conditions: broth-dilution microtiter; Pasteurella multocida 60A, Avian isolate; read-out: MIC
Summary of the method: as §2

[29] = tested on: Pasteurella multocida 68C; experiment: MIC, conventional broth-dilution microtiter test; format: cell-based; conditions: broth-dilution microtiter; Pasteurella multocida 68C; read-out: MIC
Summary of the method: as §2

[30] = tested on: Staphylococcus aureus; experiment: MIC, conventional broth-dilution microtiter test; format: cell-based
Method: as §1

[31] = tested on: Streptococcus sp. 80; experiment: MIC, conventional broth-dilution microtiter test; format: cell-based
Method: as §1

[32] = tested on: Streptococcus pyogenes C203; experiment: Protection of mice experimentally infected with S. pyogenes C203; format: in vivo
Method: Some of the derivatives of this invention have shown in vivo antimicrobial activity against experimentally-induced infections in laboratory animals. When two doses of test compound were administered to mice experimentally infected with S. pyogenes C203, the activity observed was measured as an ED50 value [effective dose in mg/kg to protect 50% of the test animals: see Warren Wick, et al., J. Bacteriol. 81, 233-235 (1961)].

[33] = tested on: Pasteurella multocida; experiment: Pasteurella infection in one-day old chicks; format: in vivo; conditions: subcutaneous, 30 mg/kg × 2, 1 and 4 hours post-challenge
Method: Certain of the formula 1 compounds of this invention have also shown in vivo activity against infections induced by gram-negative bacteria. Table V summarizes the results of tests in which illustrative compounds were evaluated against a Pasteurella infection in one-day old chicks. The compounds were administered parenterally after challenge of the chicks with Pasteurella multocida (0.1 ml of a 10^-4 dilution of a twenty-hour tryptose broth culture of an avian P. multocida given subcutaneously). In these tests, unless indicated otherwise, all non-medicated infected chicks died within 24 hours of Pasteurella challenge. In the tests summarized in Table V, the compounds were administered by subcutaneous injection at a dosage of 30 mg/kg, 1 and 4 hours post-challenge of the chicks with P. multocida.

[34] = C203, sc, mice, subcutaneous, mg/kg × 2, doses given 1 and 4 hours postinfection, read-out: ED50 Subcutaneous

Compound	MIC [3] [µg/mL]	MIC [6] [µg/mL]	MIC [7] [µg/mL]	MIC [8] [µg/mL]	MIC [9] [µg/mL]	MIC [12] [µg/mL]	MIC [13] [µg/mL]	MIC [15] [µg/mL]	MIC [16] [µg/mL]	MIC [17] [µg/mL]	MIC [18] [µg/mL]	MIC [20] [µg/mL]	MIC [21] [µg/mL]	MIC [22] [µg/mL]	MIC [23] [µg/mL]	MIC [24] [µg/mL]	MIC [25] [µg/mL]	MIC [26] [µg/mL]	MIC [27] [µg/mL]	MIC [28] [µg/mL]	also measured
CCC1CC(C)C(=O)C=CC(C)=CC(COc2cccnc2)C(CC)OC(=O)CC(O)C(C)C1OC1OC(C)C(O)C(N(C)C)C1O (centres unmarked) [Compound 46, 23-O-(3-Pyridyl)-20-deoxy-20-dihydro-OMT]	> 128	1 (≈ 1.51 µM)	2 (≈ 3.03 µM)	0.5 (≈ 0.757 µM)	4 (≈ 6.05 µM)	16 (≈ 24.2 µM)	2 (≈ 3.03 µM)	1 (≈ 1.51 µM)	1 (≈ 1.51 µM)	50 (≈ 75.7 µM)	50 (≈ 75.7 µM)	25 (≈ 37.8 µM)	6.25 (≈ 9.46 µM)	50 (≈ 75.7 µM)	50 (≈ 75.7 µM)	25 (≈ 37.8 µM)	12.5 (≈ 18.9 µM)	12.5 (≈ 18.9 µM)	12.5 (≈ 18.9 µM)	12.5 (≈ 18.9 µM)	MIC ([1]; agar-dilution, Escherichia coli EC14, read-out: MIC): > 128 µg/mL; MIC ([2]; agar-dilution, Escherichia coli TEM, read-out: MIC): 128 µg/mL (≈ 194 µM); MIC ([4]; agar-dilution, Klebsiella pneumoniae X26, read-out: MIC): 4 µg/mL (≈ 6.05 µM); MIC ([5]; Staphylococcus aureus, V41): 0.5 µg/mL (≈ 0.757 µM); MIC ([10]; Streptococcus pyogenes, C203): 2 µg/mL (≈ 3.03 µM); MIC ([11]; Haemophilus influenzae, 76): 16 µg/mL (≈ 24.2 µM); MIC ([14]; agar-dilution, Staphylococcus epidermidis EPI2, read-out: MIC): 0.25 µg/mL (≈ 0.378 µM); MIC [19]: 1.56 µg/mL (≈ 2.36 µM); MIC [29]: 6.25 µg/mL (≈ 9.46 µM); MIC [30]: 1.56 µg/mL (≈ 2.36 µM); MIC ([31]; Streptococcus, SP.80): 3.12 µg/mL (≈ 4.72 µM); ED50 ([32]; C203, po, read-out: ED50 Oral): > 100 mg/kg; ED50 [32, 34]: > 10 mg/kg; Number of Deaths/Number Treated [33]: 10/10
CCC1OC(=O)CC(O)C(C)C(OC2OC(C)C(O)C(N(C)C)C2O)C(CCNCc2ccccc2)CC(C)C(=O)C=CC(C)=CC1CO (centres unmarked) [Compound 4, 20-N-Benzylamino-20-deoxy-20-dihydro-OMT]	> 128	8 (≈ 11.6 µM)	16 (≈ 23.2 µM)	2 (≈ 2.9 µM)	32 (≈ 46.5 µM)	2 (≈ 2.9 µM)	32 (≈ 46.5 µM)	8 (≈ 11.6 µM)	4 (≈ 5.81 µM)	50 (≈ 72.6 µM)	50 (≈ 72.6 µM)	50 (≈ 72.6 µM)	12.5 (≈ 18.1 µM)	6.25 (≈ 9.07 µM)	6.25 (≈ 9.07 µM)	6.25 (≈ 9.07 µM)	3.12 (≈ 4.53 µM)	12.5 (≈ 18.1 µM)	6.25 (≈ 9.07 µM)	3.12 (≈ 4.53 µM)	MIC ([1]; Escherichia coli, EC14): 128 µg/mL (≈ 186 µM); MIC ([2]; Escherichia coli): 8 µg/mL (≈ 11.6 µM); MIC ([4]; Klebsiella pneumoniae, X26): 8 µg/mL (≈ 11.6 µM); MIC ([5]; agar-dilution, Staphylococcus aureus V41, Penicillin-resistant strain, read-out: MIC): 16 µg/mL (≈ 23.2 µM); MIC ([10]; agar-dilution, Streptococcus pyogenes C203, read-out: MIC): 4 µg/mL (≈ 5.81 µM); MIC ([11]; agar-dilution, Haemophilus influenzae 76, Ampicillin-resistant strain, read-out: MIC): 2 µg/mL (≈ 2.9 µM); MIC ([14]; Staphylococcus epidermidis, EPI2): 32 µg/mL (≈ 46.5 µM); MIC ([19]; broth-dilution microtiter, Mycoplasma gallisepticum, read-out: MIC): 3.12 µg/mL (≈ 4.53 µM); MIC [29]: 3.12 µg/mL (≈ 4.53 µM); MIC ([30]; broth-dilution microtiter, read-out: MIC): 12.5 µg/mL (≈ 18.1 µM); MIC ([31]; broth-dilution microtiter, Streptococcus sp. 80, read-out: MIC): 6.25 µg/mL (≈ 9.07 µM); ED50 ([32]; C203, mice, oral, mg/kg × 2, doses given 1 and 4 hours postinfection, read-out: ED50 Oral): > 100 mg/kg; ED50 [32, 34]: 16.1 mg/kg; Number of Deaths/Number Treated [33]: 1/10

Source: US4468511A, “C-20- And C-23-Modified macrolide derivatives” (Eli Lilly and Company, priority 1983, dated 1984)
